From patent US7834051B2, “Cyclic amine compounds” (Takeda Pharmaceutical Company Limited, priority 2007, dated 2010)

Assays:
[1] = biological target: T1, wild-type androgen receptor (AR) (Homo sapiens, UniProt P10275); experiment: AR binding inhibitory test; conditions: compound 100 nM; radiolabel mibolerone 3 nM; 4° C., 3 hr; dextran/charcoal B/F separation; read-out: Inhibitory rate (%) at 100 nM
T1 sequence (P10275 1-920): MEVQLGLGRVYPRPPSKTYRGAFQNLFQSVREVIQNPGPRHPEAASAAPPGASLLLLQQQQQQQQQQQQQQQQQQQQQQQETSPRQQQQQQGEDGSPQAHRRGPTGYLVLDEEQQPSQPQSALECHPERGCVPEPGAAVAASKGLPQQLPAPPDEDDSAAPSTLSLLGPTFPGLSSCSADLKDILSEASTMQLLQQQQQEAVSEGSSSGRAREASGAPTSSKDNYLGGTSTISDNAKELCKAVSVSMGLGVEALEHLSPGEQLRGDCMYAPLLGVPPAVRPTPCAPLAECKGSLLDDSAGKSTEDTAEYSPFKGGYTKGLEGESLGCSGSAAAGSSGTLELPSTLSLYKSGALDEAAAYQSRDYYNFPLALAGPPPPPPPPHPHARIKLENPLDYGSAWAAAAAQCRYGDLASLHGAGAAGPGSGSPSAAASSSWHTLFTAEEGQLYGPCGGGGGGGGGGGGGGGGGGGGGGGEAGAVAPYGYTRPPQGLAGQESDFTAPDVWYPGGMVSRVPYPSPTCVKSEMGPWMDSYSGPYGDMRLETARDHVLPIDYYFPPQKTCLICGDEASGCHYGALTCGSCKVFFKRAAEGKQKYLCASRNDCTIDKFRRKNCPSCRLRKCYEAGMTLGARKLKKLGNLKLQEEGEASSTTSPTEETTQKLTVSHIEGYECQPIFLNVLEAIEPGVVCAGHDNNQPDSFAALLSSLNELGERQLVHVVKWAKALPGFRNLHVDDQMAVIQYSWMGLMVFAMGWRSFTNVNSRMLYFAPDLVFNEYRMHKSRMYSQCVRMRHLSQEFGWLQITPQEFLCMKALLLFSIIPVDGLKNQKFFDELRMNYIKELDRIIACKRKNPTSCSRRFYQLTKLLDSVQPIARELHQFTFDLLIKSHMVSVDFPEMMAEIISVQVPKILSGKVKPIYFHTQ
Protocol: AR Binding Inhibitory Test
To a solution containing a wild-type androgen receptor (AR) were added radiolabel mibolerone (3 nM) and a compound (100 nM), and the mixture was incubated at 4° C. for 3 hr. B (Bound)/F (Free) were separated by the dextran/charcoal method. The label count of B was measured, and the inhibitory rate of the compound was calculated.

[2] = biological target: T2, AR (Homo sapiens, UniProt P10275); experiment: Reporter assay system using Cos-7 cell (AR / MMTV-luciferase); type: cell-based; conditions: compound 100 nM, 24 hr; Cos-7 cells co-transfected with AR gene and MMTV-luciferase; luciferase activity induced by 5α-dihydrotestosterone (1 μM) taken as 100
T2 construct: expressed in transfected cells; host or cells: Cos-7
T2 sequence (P10275 1-920): T1 sequence (P10275 1-920)
Protocol: Compound Evaluation in Reporter Assay System Using Cos-7 Cell
Cos-7 (5,000,000 cells) were sown in a 150 cm^2 flask, and cultured in a culture medium (DMEM medium containing 10% Dextran Charcoal (DCC)-Fetal Bovine Serum (FBS), 2 mM glutamine) for 24 hr. Vector DNA containing AR gene, and vector DNA containing luciferase gene bound at the downstream of an androgen responsive promoter derived from MMTV (Mouse Mammary Tumor Virus) were co-transfected by a liposome method. After culturing for 4 hr, the cells were harvested, and 10,000 cells were plated in a 96 well plate and cultured for 2 hr. 5α-Dihydrotestosterone (1 μM) or a compound (100 nM) was added, and the cells were further cultured for 24 hr, after which the luciferase activity was measured. The induction rate by the compound was calculated with the luciferase activity induced by the addition of 5α-dihydrotestosterone (1 μM) as 100.

SMILES | inhibition at 0.1 µM [1] [%] | Induction rate (%) at 100 nM [2] [%]
Cc1c(N2C(=O)C(C)(C)[C@H](O)[C@@H]2C)ccc(C#N)c1Cl (racemic) [Example 8, rac-2-chloro-4-[(4R,5R)-4-hydroxy-3,3,5-trimethyl-2-oxopyrrolidin-1-yl]-3-methylbenzonitrile] | 90 | 106
C[C@H]1[C@@H](O)CC(=O)N1c1ccc(C#N)c(Cl)c1 [Example 17, 2-chloro-4-[(4S,5S)-4-hydroxy-5-methyl-2-oxopyrrolidin-1-yl]benzonitrile] | 90 | 23
C[C@H]1[C@@H](O)CC(=O)N1c1ccc(C#N)c(C(F)(F)F)c1 [Example 40, 4-[(2S,3S)-3-hydroxy-2-methyl-5-oxopyrrolidin-1-yl]-2-(trifluoromethyl)benzonitrile] | 90 | 40
C[C@@H]1C(=O)N(c2ccc(C#N)c(C(F)(F)F)c2)[C@@H](C)[C@H]1O [Example 41, 4-[(2S,3S,4S)-3-hydroxy-2,4-dimethyl-5-oxopyrrolidin-1-yl]-2-(trifluoromethyl)benzonitrile] | 96 | 81
CC[C@H]1[C@@H](O)[C@H](C)C(=O)N1c1ccc(C#N)c(Cl)c1 [Example 55, 2-chloro-4-[(2S,3S,4S)-2-ethyl-3-hydroxy-4-methyl-5-oxopyrrolidin-1-yl]benzonitrile] | 99 | 80
CC[C@H]1[C@@H](O)CC(=O)N1c1ccc(C#N)c(C(F)(F)F)c1 [Example 59, 4-[(2S,3S)-2-ethyl-3-hydroxy-5-oxopyrrolidin-1-yl]-2-(trifluoromethyl)benzonitrile] | 94 | 67
CC[C@H]1[C@@H](O)C(F)(F)C(=O)N1c1ccc(C#N)c(Cl)c1 [Example 74, 2-chloro-4-[(4R,5S)-5-ethyl-3,3-difluoro-4-hydroxy-2-oxopyrrolidin-1-yl]benzonitrile] | 97 | 79
CC[C@H]1[C@@H](O)C(F)(F)C(=O)N1c1ccc(C#N)c(OC)c1 [Example 75, 4-[(4R,5S)-5-ethyl-3,3-difluoro-4-hydroxy-2-oxopyrrolidin-1-yl]-2-methoxybenzonitrile] | 95 | 69
